Test results from publication PMC10804372, “Degradation by Design: New Cyclin K Degraders from Old CDK Inhibitors” (ACS Chemical Biology, 2024).

Tests used:
CDK12 / DDB1 = system: CDK12 / DDB1; parameters: method as in PMID 32494016; settings: in vitro; cited from earlier work
[1] = parameters: method as in PMID 32494016; settings: after 5 h of treatment; cited from earlier work
PAMPA permeability = format: in vitro ADME; settings: pH 7.4; PAMPA, pH7.4; read-out: pH7.4 Papp x 10^-6
Cyclin K [2] = test: Cyclin K degradation concentration-response (DC50, DMax) by Western blot; format: cell-based, human; settings: HEK293T, Western blot quantification, 3 biological repeats
Protocol: With the aim of comparing the degradation ability of the new analogues, we derived DC50 values by using Western blotting (Table 5). […] This approach has been previously used to improve the potency of BCL6 degraders.[33] We therefore also measured CDK12 affinity using the KINOMEscan binding assay (Table 5).[34]
(§1) HEK293T human […] kidney cells were cultured in DMEM (Gibco/Life Technologies), containing 25 mM D-glucose, 4 mM L-glutamine, and 1 mM sodium pyruvate, and supplemented with 10% (v/v) FBS and 1% nonessential amino acids (Gibco/Life Technologies). Cells were incubated at 37 °C in a humidified atmosphere with 5% CO2.
(§2) Cells were washed with PBS and lysed (20 mM HEPES pH 7.5, 10% glycerol, 0.4 M KCl, 0.4% Triton X-100, 15 mM EDTA, and 1× protease and phosphatase inhibitors). The insoluble fraction was removed by centrifugation. Protein quantification was performed using a Bradford assay and compared to a BSA calibration curve. Equal amounts of lysates were run on SDS–PAGE 4–12% Bis–Tris Protein Gels (NuPAGE, Thermo Fisher Scientific) and then transferred onto Immobilon-P PVDF Membrane (Millipore, IPVH00010) using a Mini Trans-Blot Cell (Bio-Rad, 1703930). The membranes were blocked with 5% bovine albumin serum (BSA) in Tris-buffered saline with Tween 20 (TBS-T) and incubated with primary antibodies overnight at 4 °C. The membranes were washed three times with TBS-T and incubated with HRP-conjugated secondary antibody (BioRad) for 2 h. Membranes were washed again three times with TBS-T before being developed using Pierce ECL Western Blotting Substrate (Thermo, 32106) and visualized using LI-COR. Antibodies were purchased from Cell Signaling Technology: anti-GAPDH (D4C6R) and anti-DDB1 (D4C8) or Bethyl Laboratories: anti-Cyclin K (A301-939A). The following HRP-linked secondary antibodies were used by dilution in 5% BSA/TBS-T: antirabbit IgG (BioRad, 5213–2504) and antimouse IgG (BioRad, 103005).
(§3) Unedited blots containing the marker lane are available on request. Western blots were quantified using ImageJ. Cyclin K levels were normalized using GAPDH as a loading control. DC50 values were calculated from concentration–response curves using nonlinear regression fit to a 4-parameter curve by GraphPad Prism.

Cyclin K [3] = test: Cyclin K levels by Western blot after single-concentration treatment; format: cell-based, human; settings: HEK293T cells, 1 μM for 2 h, quantified from Western blots, mean ± SD, three independent experiments
Protocol: as §1, §2, §3

CC[C@H](CO)Nc1nc(NCc2ccc(-c3ccccn3)cc2)c2ncn(C(C)C)c2n1 [compound 1, reference compound]
stabilization of the CDK12-DDB1 interaction compared to apo-form (CDK12 / DDB1): 1000 fold | number of other proteins depleted by at least twofold [1]: […] | Papp (PAMPA permeability): 45.4 ×10⁻⁶ cm/s | DMax (%) (Cyclin K [2]): […] | DC50 (Cyclin K [2]; read-out: CycK DC50): […] | Remaining Cyclin K (%) (Cyclin K [3]): 1 ± 1%
